In the NIST ThermoML archive (doi:10.1016/j.jct.2016.07.015):
“And” between values parts separate entries of the source, which are not always exact repeats. Equal entries are not always repeated.

Conditions: Crystal, Calculated from knudsen effusion weight loss

COc1cc(CO)ccc1O [4-hydroxy-3-methoxybenzyl alcohol]
Conditions	vapor or sublimation pressure
332.19 K	0.000113 kPa and 0.0001121 kPa and 0.0001096 kPa
334.36 K	0.0001475 kPa and 0.0001466 kPa and 0.0001413 kPa
336.15 K	0.0001823 kPa and 0.0001755 kPa and 0.0001867 kPa
338.21 K	0.0002375 kPa and 0.0002339 kPa and 0.0002403 kPa
340.27 K	0.0003072 kPa and 0.0002982 kPa and 0.0003122 kPa
342.14 K	0.0003845 kPa and 0.0003697 kPa and 0.0003916 kPa
344.21 K	0.0005061 kPa and 0.0004935 kPa and 0.000506 kPa
346.27 K	0.0006422 kPa and 0.0006234 kPa and 0.0006502 kPa
348.13 K	0.0008066 kPa and 0.0007737 kPa and 0.0008145 kPa
350.15 K	0.001038 kPa and 0.001007 kPa and 0.001064 kPa
